Our source for the LD50, inhibition and IC50 values is ChEMBL document CHEMBL3046281, “Nitrogen Analogues of Aldrin as Noncompetitive Antagonists of GABAA Receptor” (J Pestic Sci, 1995).

Activity calls are given as the source filed them. The rule behind the calls is not given here.

In one assay the test system is Musca domestica. The experiment in a line: Insecticidal activity against WHO susceptible Musca domestica (house fly) assessed as compound level causing mortality per fly applied through topical application. The format is functional.
Assay [1] has as its target GABA-A receptor; anion channel (Rattus norvegicus) (UniProt O09028+P15431+P18506+P18508+P19969+P20236+P23574+P23576+P28471+P28473+P30191+P62813+P63079+P63138+Q91ZM7+Q9ES14). The experiment in a line: Competitive inhibition of [35S]TBPS binding to gamma-aminobutyric acid type-A receptor in Rattus norvegicus (rat) brain membranes at 50 nM incubated for 90 min by Scatchard plot. The settings on record: Membrane.

Assay [2] deals with GABA-A receptor; anion channel. In words: Displacement of [35S]TBPS from gamma-aminobutyric acid type-A receptor in Rattus norvegicus (rat) brain membranes incubated for 90 min by liquid scintillation counting method. Details: species or system Membrane. A general note: Loss of bound radioactivity is the signal in a displacement assay; it reports binding, not function.

As for `ClC1=C(Cl)[C@]2(Cl)[C@H]3[C@H]([C@@H]4C[C@H]3N=N4)[C@@]1(Cl)C2(Cl)Cl`, the LD50 in the assay with Musca domestica was 2.8 ng. Also, the inhibition result in assay [1] was “Active”. For the same compound, the half-inhibitory concentration (IC50) (commonly the point on the concentration scale where inhibition reaches its midpoint) in assay [2] was 0.0484 µM.

Regarding `[O-][N+]1=N[C@@H]2C[C@H]1[C@H]1[C@@H]2[C@@]2(Cl)C(Cl)=C(Cl)[C@]1(Cl)C2(Cl)Cl` (relative stereo), in the assay with Musca domestica, the LD50 is reported as 3.1 ng. In assay [2], this compound displayed an IC50 of 0.119 µM.

In the case of `ClC1=C(Cl)[C@]2(Cl)[C@@H]3[C@@H]4CC[C@@H](C4)[C@@H]3[C@@]1(Cl)C2(Cl)Cl` [REL-ALDRIN], in the assay with Musca domestica, the LD50 is recorded as 18.5 ng. The compound further had an IC50 in assay [2] of 0.0537 µM.
